Our source for the IC50 values is patent US20160002247A1, “8-SUBSTITUTED IMIDAZOPYRIMIDINONE DERIVATIVE HAVING AUTOTAXIN INHIBITORY ACTIVITY” (THE UNIVERSITY OF TOKYO, priority 2013, published 2016).

This assay addresses T1, Human autotaxin enzyme (Homo sapiens, UniProt Q13822).
T1 construct: purchased R&D System
The assay is described as follows: Evaluation of autotaxin inhibitor, Method B (Test Example 2): TG-mTMP fluorescence. The format is biochemical. On the procedure: (Method B) Evaluation of Autotaxin Inhibitor
Solution A containing 25 mM Tris-HCl buffer (pH7.5), 100 mM NaCl, 5 mM MgCl2 and 0.1% BSA was prepared. Human autotaxin enzyme (purchased from R&D System) was diluted with Solution A, and 5 μL of which was added to a solution of test compound in DMSO. Furthermore, 5 μl of 0.5 μM TG-mTMP in Solution A was added and allowed to react at room temperature for 2 hours. 5 μl of 150 mM EDTA in Solution A was added to quench the reaction, and the fluorescent dye TokyoGreen, which was produced by the reaction, was detected. The fluorescence was detected using ViewLux (PerkinElmer, Inc.) with an excitation wavelength of 480 nm and a fluorescence wavelength of 540 nm.

Where [1] appears, read: Assay Method B (Test Example 2), human autotaxin, read-out: Inhibitory Activity (autotaxin enzyme inhibitory activity, IC50 class).
Setting [2] is: Assay Method: Method B (Test Example 2), read-out: Inhibitory Activity (Enzyme Inhibitory Activity, IC50).

Structures are written as SMILES. Read-outs that look alike come from different tables or passages of the source. Some results are limits rather than exact numbers.

The IC50 is the point on the concentration scale where inhibition reaches its midpoint. With `CCCCCn1c(C)cc(=O)n2c(CO)c(-c3ccc(Cl)cc3)nc12` [Compound 168, 2-(4-chlorophenyl)-3-hydroxymethyl-7-methyl-8-pentylimidazo[1,2-a]pyrimidin-5(8H)-one], the IC50 under setting [1] lay in the range of 100 to 1000 nM.
For `CCCCCn1c(OCCOC)cc(=O)n2cc(-c3ccc(Cl)cc3)nc12` [Compound 269], the IC50 under setting [1] is < 10 nM.
Same read-out and setting: next, `CCCCCn1c(-c2cnc(N)cn2)cc(=O)n2cc(-c3ccc(Cl)cc3)nc12` [Compound 424]: < 10 nM; `Cc1cc(=O)n2cc(-c3ccc(Cl)cc3)nc2n1Cc1ccc(F)cc1F` [Compound 101]: 10 to 100 nM.
Same read-out and setting: next, `CCCCCn1c(NCC(=O)N2CCN(C)CC2)cc(=O)n2cc(-c3ccc(Cl)cc3)nc12` [Compound 241]: < 10 nM.
Still for that read-out and setting: to `CCCCCn1c(/C=C/c2ccccc2)cc(=O)n2cc(-c3ccc(Cl)cc3)nc12` [Compound 398] belongs 10 to 100 nM.
Consider `CCCCCn1c(N2CCN(CCN3CCOCC3)CC2)cc(=O)n2cc(-c3ccc(Cl)cc3)nc12` [Compound 191], for which the IC50 under setting [1] is < 10 nM.
On to `CCCCCn1c(N(CCO)CCO)cc(=O)n2cc(-c3ccc(Cl)cc3)nc12` [Compound 253], for which, under setting [1], the IC50 lay within 10 to 100 nM.
In the case of `CCCCCn1c(-c2ccc(N3CCN(C)CC3)cc2)cc(=O)n2cc(-c3ccc(Cl)cc3)nc12` [Compound 416], the IC50 under setting [1] was < 10 nM.
Take `CCCCCn1c(N2CCN(CCCOC)CC2)cc(=O)n2cc(-c3ccc(Cl)cc3)nc12` [Compound 243]: the IC50 under setting [1] is < 10 nM.
In the case of `CCCCCn1c(C)c(CC)c(=O)n2cc(-c3ccc(Cl)cc3)nc12` [Compound 205], the IC50 under setting [1] was in the range of 10 to 100 nM.
With `Cc1cc(=O)n2cc(-c3ccc(Cl)cc3)nc2n1C(C)C(=O)OC(C)(C)C` (centres unmarked) [Compound 74], under setting [2], the IC50 was in the range of 100 to 1000 nM.
As to `Cc1cc(=O)n2cc(-c3ccc(Cl)cc3)nc2n1Cc1ccncc1` [Compound 109], the IC50 under setting [1] fell in the range of 100 to 1000 nM.
Still for that read-out and setting: next, `CCCCCn1c(C)cc(=O)n2cc(-c3ccc(C(F)(F)F)cc3)nc12` [Compound 161]: < 10 nM; `Cc1cc(=O)n2cc(-c3ccc(Cl)cc3)nc2n1Cc1ccc(Cl)c(Cl)c1` [Compound 104]: 10 to 100 nM.
Still for that read-out and setting: next, `CCCCCn1c(C)c(CCCC)c(=O)n2cc(-c3ccc(Cl)cc3)nc12` [Compound 204]: 100 to 1000 nM.
With `CCCCn1c(C)cc(=O)n2cc(-c3ccc(Cl)cc3)nc12` [Compound 7], the IC50 under setting [2] lay in the range of 10 to 100 nM.
The same measure, in the same setting: next, `CCOC(=O)c1ccc(Cn2c(C)cc(=O)n3cc(-c4ccc(Cl)cc4)nc23)cc1` [Compound 86]: 100 to 1000 nM.
`CCCCCn1c(Cl)cc(=O)n2cc(-c3ccc(Cl)cc3)nc12` [Compound 176, 7-chloro-2-(4-chlorophenyl)-8-pentylimidazo[1,2-a]pyrimidin-5(8H)-one]: the IC50 under setting [1] lay within 10 to 100 nM.
The same measure, in the same setting: next, `CCCCCn1c(C(=O)O)cc(=O)n2cc(-c3ccc(Cl)cc3)nc12` [Compound 372]: 10 to 100 nM; `CCCCCn1c(N(C)C)cc(=O)n2cc(-c3ccc(Cl)cc3)nc12` [Compound 231]: < 10 nM.
Still for that read-out and setting: next, `CCCCCn1c(NCc2ccc(N(C)C)cc2)cc(=O)n2cc(-c3ccc(Cl)cc3)nc12` [Compound 237]: 10 to 100 nM; `CCCCCn1c(C)cc(=O)n2cc(-c3ccc(N4CCCC4=O)cc3)nc12` [Compound 148]: > 1000 nM.
Still for that read-out and setting: next, `CCCCCn1c(C)cc(=O)n2cc(-c3ccc(OC)cc3)nc12` [Compound 152]: 10 to 100 nM.
Turning to `CCCCCn1c(C)cc(=O)n2cc(-c3ccc4occc4c3)nc12` [Compound 146], the concentration for half-maximal inhibition (IC50) under setting [1] lay in the range of 100 to 1000 nM.
The same measure, in the same setting: to `CCCCCn1c(-c2ccc(C(=O)NCCN3CCOCC3)cc2)cc(=O)n2cc(-c3ccc(Cl)cc3)nc12` [Compound 374] belongs < 10 nM.
Take `CCN(CC)CCn1c(C)cc(=O)n2cc(-c3ccc(Cl)cc3)nc12` [Compound 75]: under setting [2], the IC50 fell in the range of 100 to 1000 nM.
In the case of `O=C(O)c1ccc(CNc2cc(=O)n3cc(-c4ccc(Cl)cc4)nc3n2CCCC(F)(F)F)cc1` [Compound 287], under setting [1], the IC50 was < 10 nM.
For `Cc1cc(=O)n2cc(-c3ccc(Cl)cc3)nc2n1CCC(F)(F)F` [Compound 65], under setting [2], the IC50 lay within 100 to 1000 nM.
In the case of `CCCCCn1c(-c2ccc(F)cc2)cc(=O)n2cc(-c3ccc(Cl)cc3)nc12` [Compound 368], the IC50 under setting [1] is < 10 nM.
Turning to `Cc1cc(=O)n2cc(-c3ccc(Cl)cc3)nc2n1Cc1ccc(C(C)C)cc1` [Compound 95], under setting [1], the IC50 lay in the range of 10 to 100 nM.
On to `CCCC(O)Cn1c(C)cc(=O)n2cc(-c3ccc(Cl)cc3)nc12` (centres unmarked) [Compound 42], for which the IC50 under setting [2] fell in the range of 10 to 100 nM.
With `CCCCCn1c(Oc2ccc(C(=O)CC)cc2)cc(=O)n2cc(-c3ccc(Cl)cc3)nc12` [Compound 266], under setting [1], the IC50 fell in the range of 100 to 1000 nM.
On the same count and under the same terms, next, `CCCCCn1c(OC2CCCC2)cc(=O)n2cc(-c3ccc(Cl)cc3)nc12` [Compound 260]: 10 to 100 nM; `CCCCCn1c(N2CC(O)C2)cc(=O)n2cc(-c3ccc(Cl)cc3)nc12` [Compound 274]: < 10 nM.
`CCCCCn1c(-c2cc[nH]n2)cc(=O)n2cc(-c3ccc(Cl)cc3)nc12` [Compound 417]: under setting [1], the IC50 fell in the range of 10 to 100 nM.
Take `Cc1cc(=O)n2cc(-c3ccc(Cl)cc3)nc2n1CCOC(C)C` [Compound 76]: the half-inhibitory concentration (IC50) under setting [2] was in the range of 100 to 1000 nM.
Same read-out and setting: next, `Cc1cc(=O)n2cc(-c3ccc(Cl)cc3)nc2n1CCN(C)C` [Compound 70]: 100 to 1000 nM.
As for `CCCCCn1c(C)cc(=O)n2cc(-c3ccc(C4CCCCC4)cc3)nc12` [Compound 145], the IC50 under setting [1] was > 1000 nM.
As to `CCCCCn1c(NCc2ccccn2)cc(=O)n2cc(-c3ccc(Cl)cc3)nc12` [Compound 229], under setting [1], the IC50 was 10 to 100 nM.
On the same count and under the same terms, to `CN(C)CCNC(=O)c1ccc(-c2cc(=O)n3cc(-c4ccc(C#N)cc4)nc3n2CCCCC#N)cc1` [Compound 384] belongs < 10 nM; to `CCCCCn1c(C)cc(=O)n2c(CN(C)C)c(-c3ccc(Cl)cc3)nc12` [Compound 173], > 1000 nM.
For `CC(=O)OCCn1c(C)cc(=O)n2cc(-c3ccc(Cl)cc3)nc12` [Compound 29], under setting [2], the IC50 is 10 to 100 nM.
Turning to `CCCCCn1c(C)c(F)c(=O)n2cc(-c3ccc(Cl)cc3)nc12` [Compound 206], the half-inhibitory concentration (IC50) under setting [1] was 10 to 100 nM.
As to `CCCCCn1c(NCc2cccn2C)cc(=O)n2cc(-c3ccc(Cl)cc3)nc12` [Compound 228], the IC50 under setting [1] was in the range of 10 to 100 nM.
On to `Cc1cc(=O)n2cc(-c3ccc(Cl)cc3)nc2n1Cc1ccc2ccccc2c1` [Compound 102], for which, under setting [1], the IC50 lay in the range of 100 to 1000 nM.
Same read-out and setting: to `CCCCCn1c(-c2ccccc2)cc(=O)n2cc(-c3ccc(Cl)cc3)nc12` [Compound 366] belongs 10 to 100 nM; to `CCCCCn1c(-c2ccc(OC)cc2)cc(=O)n2cc(-c3ccc(Cl)cc3)nc12` [Compound 397], < 10 nM.
Still for that read-out and setting: to `CCCCCn1c(Oc2nccs2)cc(=O)n2cc(-c3ccc(Cl)cc3)nc12` [Compound 268] belongs < 10 nM; to `CCCCCn1c(N2CCN(CC(=O)N(C)C)CC2)cc(=O)n2cc(-c3ccc(Cl)cc3)nc12` [Compound 240], < 10 nM.
On the same count and under the same terms, to `CCCCCn1c(-c2cccc(OC)c2)cc(=O)n2cc(-c3ccc(Cl)cc3)nc12` [Compound 396] belongs 10 to 100 nM; to `CCCCCn1c(-c2ccc(C(=O)N(C)C)cc2)cc(=O)n2cc(-c3ccc(Cl)cc3)nc12` [Compound 402], < 10 nM.
As for `CCCCCOC(=O)CCc1c(C)n(CCCCC)c2nc(-c3ccc(Cl)cc3)cn2c1=O` [Compound 217], under setting [1], the half-inhibitory concentration (IC50) is 100 to 1000 nM.
